Reference: ChEMBL document CHEMBL1201862, “PubChem BioAssay data set” (2004)
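Method: 48-hour compound exposure of cells in 96-well plates, five concentrations, linear interpolation of endpoints. The concentration for 50% growth inhibition is given as GI50.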 The source made the active and inactive calls. Cut-off read from the data, not from the text of the source: active = GI50 up to about 1.1 µM and inactive = higher.

Tests used:
Assay in all cases: NCI anticancer screen, dose series, 48 h
[1] = test system: 786-0
[2] = test system: A498
[3] = test system: A549
[4] = test system: ACHN
[5] = test system: CAKI-1
[6] = test system: CCRF-CEM
[7] = test system: COLO 205
[8] = test system: DU-145
[9] = test system: EKVX
[10] = test system: HCC 2998
[11] = test system: HCT-116
[12] = test system: HCT-15
[13] = test system: HL-60
[14] = test system: HOP-62
[15] = test system: HOP-92
[16] = test system: HT-29
[17] = test system: Hs-578T
[18] = test system: IGROV-1
[19] = test system: K562
[20] = test system: KM12
[21] = test system: LOX IMVI
[22] = test system: M14
[23] = test system: MCF7
[24] = test system: MDA-MB-231
[25] = test system: MDA-MB-435
[26] = test system: MDA-N
[27] = test system: MOLT-4
[28] = test system: Malme-3M
[29] = test system: NCI-H226
[30] = test system: NCI-H23
[31] = test system: NCI-H460
[32] = test system: NCI-H522
[33] = test system: NCI/ADR-RES
[34] = test system: OVCAR-3
[35] = test system: OVCAR-4
[36] = test system: OVCAR-5
[37] = test system: OVCAR-8
[38] = test system: PC-3
[39] = test system: RPMI-8226
[40] = test system: RXF 393
[41] = test system: SF-268
[42] = test system: SF-295
[43] = test system: SF-539
[44] = test system: SK-MEL-28
[45] = test system: SK-MEL-2
[46] = test system: SK-MEL-5
[47] = test system: SK-OV-3
[48] = test system: SN12C
[49] = test system: SNB-19
[50] = test system: SNB-75
[51] = test system: SR
[52] = test system: SW-620
[53] = test system: T47D
[54] = test system: TK-10
[55] = test system: U-251
[56] = test system: UACC-257
[57] = test system: UACC-62
[58] = test system: UO-31

Measured: GI50

Nc1ncnc2c1ncn2C1OC(CO)=CC1O (configuration not stated)
inactive: [1] > 37.5 µM | [2] > 37.5 µM | [3] > 37.5 µM | [4] > 37.5 µM | [5] > 37.5 µM | [6] > 37.5 µM | [7] > 37.5 µM | [8] > 37.5 µM | [9] > 37.5 µM | [10] > 37.5 µM | [11] > 37.5 µM | [13] > 37.5 µM | [14] > 37.5 µM | [15] > 37.5 µM | [16] > 37.5 µM | [17] > 37.5 µM | [18] > 37.5 µM | [19] > 37.5 µM | [20] > 37.5 µM | [21] > 37.5 µM | [22] > 37.5 µM | [23] > 37.5 µM | [24] > 37.5 µM | [25] > 37.5 µM | [26] > 37.5 µM | [27] > 37.5 µM | [28] > 37.5 µM | [29] > 37.5 µM | [30] > 37.5 µM | [31] > 37.5 µM | [32] > 37.5 µM | [33] > 37.5 µM | [34] > 37.5 µM | [35] > 37.5 µM | [36] > 37.5 µM | [37] > 37.5 µM | [38] > 37.5 µM | [39] > 37.5 µM | [40] > 37.5 µM | [41] > 37.5 µM | [42] > 37.5 µM | [43] > 37.5 µM | [44] > 37.5 µM | [45] > 37.5 µM | [46] > 37.5 µM | [47] > 37.5 µM | [48] > 37.5 µM | [49] > 37.5 µM | [50] > 37.5 µM | [51] > 37.5 µM | [52] > 37.5 µM | [53] > 37.5 µM | [54] > 37.5 µM | [55] > 37.5 µM | [56] > 37.5 µM | [57] > 37.5 µM | [58] > 37.5 µM
> 37.5 µM: [12]

C/C(=C\CNc1ncnc2c1ncn2CCC#N)CO
inactive: [1] > 100 µM | [3] > 100 µM | [4] > 100 µM | [5] > 100 µM | [6] > 100 µM | [7] > 100 µM | [8] > 100 µM | [9] > 100 µM | [10] > 100 µM | [11] > 100 µM | [13] > 100 µM | [14] > 100 µM | [15] > 100 µM | [16] > 100 µM | [17] > 100 µM | [18] > 100 µM | [19] > 100 µM | [20] > 100 µM | [21] > 100 µM | [22] > 100 µM | [23] > 100 µM | [24] > 100 µM | [25] > 100 µM | [26] > 100 µM | [27] > 100 µM | [28] > 100 µM | [29] > 100 µM | [30] > 100 µM | [31] > 100 µM | [32] > 100 µM | [33] > 100 µM | [34] > 100 µM | [35] > 100 µM | [36] > 100 µM | [37] > 100 µM | [38] > 100 µM | [39] > 100 µM | [40] > 100 µM | [41] > 100 µM | [42] > 100 µM | [43] > 100 µM | [44] > 100 µM | [46] > 100 µM | [47] > 100 µM | [48] > 100 µM | [49] > 100 µM | [50] > 100 µM | [51] > 100 µM | [52] > 100 µM | [53] > 100 µM | [54] > 100 µM | [56] > 100 µM | [57] > 100 µM | [58] > 100 µM
